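Briefly, cells in 96-well plates were exposed to five compound concentrations for 48 h, and endpoints were estimated by linear interpolation. At the GI50, growth is halved. Definition used: TGI = concentration required for complete inhibition of growth.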
system: UACC-257 melanoma; test: DTP human tumour cell line panel, 48 h

SMILES | TGI [µM] | GI50 [µM]
CC1=C(CO)C2=C(C)C3(CC3)[C@@](C)(O)C(=O)C2=C1 | 0.487 | 
CC(=O)NC1=N/C(=C\c2ccc(Cl)cc2)C(=O)N1/C=C1\C(=O)Oc2ccccc2C1=O | > 100 | 
O=[N+]([O-])c1cccc2ccc(N/N=C/c3ccccc3O)nc12 | > 100 | > 100
C=CCc1ccc(O)c(-c2ccc(O)c(CC=C)c2)c1 | 40.6 | 17.1
Cc1nc2ccc(F)cc2c2c1CCN2c1ccc(Cl)cc1 | 13.8 | 

system: SNB-75 CNS; test: DTP human tumour cell line panel, 48 h

SMILES | TGI [µM] | GI50 [µM]
COc1cc2c(cc1OC)C1C[C@]3(CCN1CC2)C(=O)N(c1ccccc1)C(=O)N3C(C)=O (stereo not given in full) | > 200 | 
CC1=C(CO)C2=C(C)C3(CC3)[C@@](C)(O)C(=O)C2=C1 | 0.473 | 
CC(=O)NC1=N/C(=C\c2ccc(Cl)cc2)C(=O)N1/C=C1\C(=O)Oc2ccccc2C1=O | > 100 | 
O=[N+]([O-])c1cccc2ccc(N/N=C/c3ccccc3O)nc12 | > 70.6 | > 37.8
C=CCc1ccc(O)c(-c2ccc(O)c(CC=C)c2)c1 | > 46.6 | 22.1
Cc1nc2ccc(F)cc2c2c1CCN2c1ccc(Cl)cc1 | > 100 | 

system: HCC-2998 colon; test: DTP human tumour cell line panel, 48 h

SMILES | TGI [µM] | GI50 [µM]
CC1=C(CO)C2=C(C)C3(CC3)[C@@](C)(O)C(=O)C2=C1 | 0.329 | 
CC(=O)NC1=N/C(=C\c2ccc(Cl)cc2)C(=O)N1/C=C1\C(=O)Oc2ccccc2C1=O | > 100 | 
O=[N+]([O-])c1cccc2ccc(N/N=C/c3ccccc3O)nc12 | > 100 | > 100
C=CCc1ccc(O)c(-c2ccc(O)c(CC=C)c2)c1 | 36.5 | 18.4
Cc1nc2ccc(F)cc2c2c1CCN2c1ccc(Cl)cc1 | 29.4 | 

system: NCI-H460 lung; test: DTP human tumour cell line panel, 48 h

SMILES | TGI [µM] | GI50 [µM]
CC(=O)NC1=N/C(=C\c2ccc(Cl)cc2)C(=O)N1/C=C1\C(=O)Oc2ccccc2C1=O | > 100 | 
O=[N+]([O-])c1cccc2ccc(N/N=C/c3ccccc3O)nc12 | > 100 | > 100
C=CCc1ccc(O)c(-c2ccc(O)c(CC=C)c2)c1 | 35.3 | 14.1
Cc1nc2ccc(F)cc2c2c1CCN2c1ccc(Cl)cc1 | 47.7 | 

system: DU-145 prostate; test: DTP human tumour cell line panel, 48 h

SMILES | TGI [µM] | GI50 [µM]
COc1cc2c(cc1OC)C1C[C@]3(CCN1CC2)C(=O)N(c1ccccc1)C(=O)N3C(C)=O (stereo not given in full) | > 200 | 
CC(=O)NC1=N/C(=C\c2ccc(Cl)cc2)C(=O)N1/C=C1\C(=O)Oc2ccccc2C1=O | > 100 | 
O=[N+]([O-])c1cccc2ccc(N/N=C/c3ccccc3O)nc12 | > 100 | > 23.8
C=CCc1ccc(O)c(-c2ccc(O)c(CC=C)c2)c1 | 30.9 | 15.8
Cc1nc2ccc(F)cc2c2c1CCN2c1ccc(Cl)cc1 | > 100 | 

system: HL-60(TB) leukemia; test: DTP human tumour cell line panel, 48 h

SMILES | TGI [µM] | GI50 [µM]
CC1=C(CO)C2=C(C)C3(CC3)[C@@](C)(O)C(=O)C2=C1 | 1.79 | 
CC(=O)NC1=N/C(=C\c2ccc(Cl)cc2)C(=O)N1/C=C1\C(=O)Oc2ccccc2C1=O | > 100 | 
O=[N+]([O-])c1cccc2ccc(N/N=C/c3ccccc3O)nc12 | > 100 | 1.74
C=CCc1ccc(O)c(-c2ccc(O)c(CC=C)c2)c1 | > 52.3 | 9.66
Cc1nc2ccc(F)cc2c2c1CCN2c1ccc(Cl)cc1 | 17.7 | 

system: NCI-H226 lung; test: DTP human tumour cell line panel, 48 h

SMILES | TGI [µM] | GI50 [µM]
COc1cc2c(cc1OC)C1C[C@]3(CCN1CC2)C(=O)N(c1ccccc1)C(=O)N3C(C)=O (stereo not given in full) | > 200 | 
CC1=C(CO)C2=C(C)C3(CC3)[C@@](C)(O)C(=O)C2=C1 | 0.528 | 
CC(=O)NC1=N/C(=C\c2ccc(Cl)cc2)C(=O)N1/C=C1\C(=O)Oc2ccccc2C1=O | > 100 | 
O=[N+]([O-])c1cccc2ccc(N/N=C/c3ccccc3O)nc12 | > 100 | > 100
C=CCc1ccc(O)c(-c2ccc(O)c(CC=C)c2)c1 | 36.9 | 18.4
Cc1nc2ccc(F)cc2c2c1CCN2c1ccc(Cl)cc1 | 72.2 | 

system: RPMI-8226 leukemia; test: DTP human tumour cell line panel, 48 h

SMILES | TGI [µM] | GI50 [µM]
CC1=C(CO)C2=C(C)C3(CC3)[C@@](C)(O)C(=O)C2=C1 | > 81.6 | 
CC(=O)NC1=N/C(=C\c2ccc(Cl)cc2)C(=O)N1/C=C1\C(=O)Oc2ccccc2C1=O | > 100 | 
O=[N+]([O-])c1cccc2ccc(N/N=C/c3ccccc3O)nc12 | 3.12 | 0.027
C=CCc1ccc(O)c(-c2ccc(O)c(CC=C)c2)c1 | > 55.9 | 14.6

system: HOP-62 NSCLC; test: DTP human tumour cell line panel, 48 h

SMILES | TGI [µM] | GI50 [µM]
CC1=C(CO)C2=C(C)C3(CC3)[C@@](C)(O)C(=O)C2=C1 | 0.4 | 
CC(=O)NC1=N/C(=C\c2ccc(Cl)cc2)C(=O)N1/C=C1\C(=O)Oc2ccccc2C1=O | > 100 | 
O=[N+]([O-])c1cccc2ccc(N/N=C/c3ccccc3O)nc12 | > 100 | > 100
C=CCc1ccc(O)c(-c2ccc(O)c(CC=C)c2)c1 | 39.8 | 20
Cc1nc2ccc(F)cc2c2c1CCN2c1ccc(Cl)cc1 | 56.4 | 

system: M14 melanoma; test: DTP human tumour cell line panel, 48 h

SMILES | TGI [µM] | GI50 [µM]
COc1cc2c(cc1OC)C1C[C@]3(CCN1CC2)C(=O)N(c1ccccc1)C(=O)N3C(C)=O (stereo not given in full) | > 200 | 
CC1=C(CO)C2=C(C)C3(CC3)[C@@](C)(O)C(=O)C2=C1 | 0.698 | 
CC(=O)NC1=N/C(=C\c2ccc(Cl)cc2)C(=O)N1/C=C1\C(=O)Oc2ccccc2C1=O | > 100 | 
O=[N+]([O-])c1cccc2ccc(N/N=C/c3ccccc3O)nc12 | > 100 | > 100
C=CCc1ccc(O)c(-c2ccc(O)c(CC=C)c2)c1 | 48.4 | 21.4
Cc1nc2ccc(F)cc2c2c1CCN2c1ccc(Cl)cc1 | 21.4 | 

system: BT-549 breast; test: DTP human tumour cell line panel, 48 h

SMILES | GI50 [µM] | TGI [µM]
O=[N+]([O-])c1cccc2ccc(N/N=C/c3ccccc3O)nc12 | > 100 | > 100
C=CCc1ccc(O)c(-c2ccc(O)c(CC=C)c2)c1 | 13.2 | 27.5
Cc1nc2ccc(F)cc2c2c1CCN2c1ccc(Cl)cc1 |  | 67.2

system: RXF 393 renal; test: DTP human tumour cell line panel, 48 h

SMILES | TGI [µM] | GI50 [µM]
COc1cc2c(cc1OC)C1C[C@]3(CCN1CC2)C(=O)N(c1ccccc1)C(=O)N3C(C)=O (stereo not given in full) | > 200 | 
CC1=C(CO)C2=C(C)C3(CC3)[C@@](C)(O)C(=O)C2=C1 | 0.159 | 
CC(=O)NC1=N/C(=C\c2ccc(Cl)cc2)C(=O)N1/C=C1\C(=O)Oc2ccccc2C1=O | > 100 | 
O=[N+]([O-])c1cccc2ccc(N/N=C/c3ccccc3O)nc12 | > 100 | 65.8
C=CCc1ccc(O)c(-c2ccc(O)c(CC=C)c2)c1 | 47.3 | 18.9
Cc1nc2ccc(F)cc2c2c1CCN2c1ccc(Cl)cc1 | 55.7 | 

system: SR leukemia; test: DTP human tumour cell line panel, 48 h

SMILES | TGI [µM] | GI50 [µM]
CC1=C(CO)C2=C(C)C3(CC3)[C@@](C)(O)C(=O)C2=C1 | > 100 | 
CC(=O)NC1=N/C(=C\c2ccc(Cl)cc2)C(=O)N1/C=C1\C(=O)Oc2ccccc2C1=O | > 100 | 
O=[N+]([O-])c1cccc2ccc(N/N=C/c3ccccc3O)nc12 | 7.03 | 0.148
C=CCc1ccc(O)c(-c2ccc(O)c(CC=C)c2)c1 | > 100 | 14.8

system: 786-0 renal; test: DTP human tumour cell line panel, 48 h

SMILES | TGI [µM] | GI50 [µM]
CC1=C(CO)C2=C(C)C3(CC3)[C@@](C)(O)C(=O)C2=C1 | 0.474 | 
CC(=O)NC1=N/C(=C\c2ccc(Cl)cc2)C(=O)N1/C=C1\C(=O)Oc2ccccc2C1=O | > 100 | 
O=[N+]([O-])c1cccc2ccc(N/N=C/c3ccccc3O)nc12 | > 100 | > 100
C=CCc1ccc(O)c(-c2ccc(O)c(CC=C)c2)c1 | 33.5 | 16.8
Cc1nc2ccc(F)cc2c2c1CCN2c1ccc(Cl)cc1 | 34.9 | 

system: MALME-3M melanoma; test: DTP human tumour cell line panel, 48 h

SMILES | TGI [µM] | GI50 [µM]
CC1=C(CO)C2=C(C)C3(CC3)[C@@](C)(O)C(=O)C2=C1 | 0.494 | 
CC(=O)NC1=N/C(=C\c2ccc(Cl)cc2)C(=O)N1/C=C1\C(=O)Oc2ccccc2C1=O | > 100 | 
O=[N+]([O-])c1cccc2ccc(N/N=C/c3ccccc3O)nc12 | > 100 | > 100
C=CCc1ccc(O)c(-c2ccc(O)c(CC=C)c2)c1 | 34.9 | 17.1
Cc1nc2ccc(F)cc2c2c1CCN2c1ccc(Cl)cc1 | 26.9 | 

system: MDA-N; test: DTP human tumour cell line panel, 48 h

SMILES | TGI [µM]
COc1cc2c(cc1OC)C1C[C@]3(CCN1CC2)C(=O)N(c1ccccc1)C(=O)N3C(C)=O (stereo not given in full) | > 200
